Patent US7300943B2, “GSK-3 inhibitors” (Pfizer Inc., priority 2003, dated 2007)
Counter-ions that a name gives are not always drawn.

Target: T1, GSK-3 (Homo sapiens, UniProt P49841)
T1 construct: made in house
Test: GSK-3 inhibition, cell-free 33P-ATP peptide substrate SPA assay
Format: biochemical
Settings: read-out: inhibitory activity, expressed as IC50's, against GSK-3
Protocol: The specific activities of the compounds of formula (I) in inhibiting GSK-3 can be determined in both cell-free and cell-based assays, both of which have been previously described in the relevant art. See, for example, U.S. Pat. Nos. 6,417,185 and 6,489,344, the disclosures of which are incorporated herein by reference in their entirety.
A cell-free assay can be generally carried out by incubating GSK-3 with a peptide substrate, radiolabeled ATP (e.g., for example, γ^33P- or γ^32P-ATP, both of which are available from Amersham; Arlington Heights, Ill.), magnesium ions, and the compound to be assayed. […] The amount of γ^33P or γ^32P remaining in each well after washing is then quantified to determine the amount of radiolabeled phosphate incorporated into the peptide substrate. […]
Another example of a GSK-3 assay, similar to the one described hereinabove, is as follows: enzyme activities are assayed as the incorporation of ^33P from gamma phosphate of ^33P-ATP (Amersham; Arlington Heights, Ill.; catalog #AH-9968) into biotinylated peptide substrate PKTP-KKAKKL. […] The final concentration of ATP is 0.5 μM (final specific radioactivity of 4 μCi/nmol), and the final concentration of substrate is 0.75 μM. […] Radioactivity associated with the beads is then quantified by scintillation counting. […]

T1 sequence (P49841 whole entry): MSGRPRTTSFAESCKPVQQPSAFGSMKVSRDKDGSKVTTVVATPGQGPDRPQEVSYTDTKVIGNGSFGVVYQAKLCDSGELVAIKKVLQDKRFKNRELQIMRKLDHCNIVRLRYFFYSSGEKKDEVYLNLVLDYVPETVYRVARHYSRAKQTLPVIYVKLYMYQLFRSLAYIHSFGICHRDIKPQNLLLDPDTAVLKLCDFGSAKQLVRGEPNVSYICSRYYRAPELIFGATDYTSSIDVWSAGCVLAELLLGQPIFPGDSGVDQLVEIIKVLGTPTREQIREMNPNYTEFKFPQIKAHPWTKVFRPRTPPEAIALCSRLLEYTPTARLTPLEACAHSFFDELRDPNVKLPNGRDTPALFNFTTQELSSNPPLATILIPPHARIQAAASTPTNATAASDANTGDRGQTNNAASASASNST

For `O=c1cc(-c2ccccc2)c2c(C3CCC3)[nH]nc2[nH]1` [Example 5, 3-Cyclobutyl-4-phenyl-2,7-dihydro-pyrazolo[3,4-b]yridin-6-one hydrochloride], the IC50 was 36 nM.
